Results published in patent US20040018150A1, “Prodrugs of phosphonate nucleotide analogues and methods for selecting and making same” (priority 2003, published 2004).

Key:
[1] = Stability / hydrolysis in MT-2 cell extract; format: in vitro ADME
Procedure: (§1) The in vitro metabolism and stability of separated diastereomers were determined in PLCE, MT-2 extract and human plasma. A biological sample listed below, 80 μL, was transferred into a screw-capped centrifuge tube and incubated at 37° C. for 5 min. A solution containing 0.2 mg/mL of the test compound in a suitable buffer, 20 μL, was added to the biological sample and mixed. The reaction mixture, 20 μL, was immediately sampled and mixed with 60 μL of methanol containing 0.015 mg/mL of 2-hydroxymethylnaphthalene as an internal standard for HPLC analysis. The sample was taken as the time-zero sample. Then, at specific time points, the reaction mixture, 20 μL, was sampled and mixed with 60 μL of methanol containing the internal standard. The mixture thus obtained was centrifuged at 15,000 G for 5 min and the supernatant was analyzed with HPLC under the conditions described below.
(2) MT-2 cell extract was prepared from MT-2 cells according to the published procedure [A. Pompon, I. Lefebvre, J.-L. Imbach, S. Kahn, and D. Farquhar, “Antiviral Chemistry & Chemotherapy”, 5:91-98 (1994)] except for using HEPES buffer described below as the medium.
In the study for MT-2 cell extracts, the test compound was dissolved in HEPES buffer. HEPES buffer contains 0.010 M HEPES, 0.05 M potassium chloride, 0.005 M magnesium chloride, and 0.005 M dl-dithiothreitol. pH 7.4 at 37° C.
(§2) The HPLC analysis was carried out under the following conditions.

[2] = system: PLCE (porcine liver carboxyesterase); assay: in vitro; format: in vitro ADME
Procedure: as §1
(1) PLCE (porcine liver carboxyesterase from Sigma, 160 u/mg protein, 21 mg protein/mL) diluted 20 fold with PBS (phosphated-buffered saline).
In the study for PLCE, the test compound was dissolved in PBS. PBS (phosphate-buffered saline, Sigma) contains 0.01 M phosphate, 0.0027 M potassium chloride, and 0.137 M sodium chloride. pH 7.4 at 37° C.
as §2

[3] = Excretion and tissue distribution of radiolabelled prodrug in dogs; conditions: for % Dose / Conc.: dogs, oral 10 mg-eq. PMPA/kg
Procedure: Plasma and peripheral blood mononuclear cells (PBMCs) were obtained over the 24-hr period. Urine and feces were cage collected over 24 hr. At 24 h after the dose, the animals were sacrificed and tissues removed for analysis. Total radioactivity in tissues was determined by oxidation and liquid scintillation counting.

[4] = Incubation of radiolabeled PMPA prodrugs or PMPA in human whole blood; metabolites in plasma, PBMCs and RBCs; format: in vitro ADME; conditions: for Metabolites (% of Total Peak Area): PMPA: human blood, 1 h
Procedure: After 1 hour, plasma, red blood cells (RBCs) and peripheral blood mononuclear cells (PBMCs) were isolated and analyzed by HPLC with radiometric detection.

[5] = Stability in human plasma; format: in vitro ADME
Procedure: as §1
(3) Human plasma (pooled normal human plasma from George King Biomedical Systems, Inc.)
In the study for human plasma, the test compound was dissolved in TBS. TBS (tris-buffered saline, Sigma) contains 0.05 M Tris, 0.0027 M potassium chloride, and 0.138 M sodium chloride. pH 7.5 at 37° C.
as §2

In the case of `CC(C)OC(=O)OCOP(=O)(CO[C@H](C)Cn1cnc2c(N)ncnc21)OCOC(=O)OC(C)C.O=C(O)/C=C/C(=O)O` [TDF, tenofovir disoproxil fumarate, reference compound], the CC50 (MT-2 cells) was 70 µM, the “Stability T 1/2 MT-2 Cell Extract” value [1] was 70.7 min and the “MT-2 extract hydrolysis product” value ([1]; 37° C., HEPES buffer pH 7.4) was “monoPOC PMPA”. The “MT-2 extract hydrolysis rate t1/2” value ([1]; pH 7.4) was 70.7 min, the PLCE hydrolysis product ([2]; 37° C., PBS pH 7.4) was “MonoPOC PMPA” and the “PLCE hydrolysis rate t1/2” value ([2]; pH 7.4) was less than 0.14 min. The “% Dose” value ([3]; Abdominal fat, 24 h) was 0.00%, the Conc. ([3]; Abdominal fat, 24 h) was 0.16 ug-eq/g and the “% Dose” value ([3]; Adrenal Gland, 24 h) was 0.00%. The Conc. ([3]; Adrenal Gland, 24 h) was 1.90 ug-eq/g, the “% Dose” value ([3]; Axillary Lymph Nodes, 24 h) was 0.00% and the Conc. ([3]; Axillary Lymph Nodes, 24 h) was 0.37 ug-eq/g. The “% Dose” value ([3]; Bile, 24 h) was 0.00%, the Conc. ([3]; Bile, 24 h) was 9.63 ug-eq/g and the “% Dose” value ([3]; Bone Marrow, 24 h) was 0.00%. For the same compound, the Conc. ([3]; Bone Marrow, 24 h) was 0.20 ug-eq/g, the “% Dose” value ([3]; Brain, 24 h) was 0.00% and the Conc. ([3]; Brain, 24 h) was “<LOD”. For the same compound, the “% Dose” value ([3]; Cerebrospinal Fluid, 24 h) was 0.00%, the Conc. ([3]; Cerebrospinal Fluid, 24 h) was “<LOD” and the “% Dose” value ([3]; Duodenum, 24 h) was 0.49%. The Conc. ([3]; Duodenum, 24 h) was 4.96 ug-eq/g, the “% Dose” value ([3]; Eye (L + R), 24 h) was 0.00% and the Conc. ([3]; Eye (L + R), 24 h) was 0.06 ug-eq/g. For the same compound, the “% Dose” value ([3]; Feces, collected over 24 hr) was 40.96%, the “% Dose” value ([3]; Femoral Bone, 24 h) was 0.00% and the Conc. ([3]; Femoral Bone, 24 h) was 0.08 ug-eq/g. The “% Dose” value ([3]; Gall bladder, 24 h) was 0.00%, the Conc. ([3]; Gall bladder, 24 h) was 3.58 ug-eq/g and the “% Dose” value ([3]; Heart, 24 h) was 0.03%. The Conc. ([3]; Heart, 24 h) was 0.46 ug-eq/g, the “% Dose” value ([3]; Ileum, 24 h) was 0.01% and the Conc. ([3]; Ileum, 24 h) was 0.50 ug-eq/g. The “% Dose” value ([3]; Iliac Lymph Nodes, 24 h) was 0.00%, the Conc. ([3]; Iliac Lymph Nodes, 24 h) was 0.51 ug-eq/g and the “% Dose” value ([3]; Inguinal Lymph Nodes, 24 h) was 0.00%. The Conc. ([3]; Inguinal Lymph Nodes, 24 h) was 0.28 ug-eq/g, the “% Dose” value ([3]; Jejunum, 24 h) was 1.34% and the Conc. ([3]; Jejunum, 24 h) was 3.01 ug-eq/g. The “% Dose” value ([3]; Kidney, 24 h) was 4.58%, the Conc. ([3]; Kidney, 24 h) was 87.90 ug-eq/g and the “% Dose” value ([3]; Large Intestine, 24 h) was 1.63%. For the same compound, the Conc. ([3]; Large Intestine, 24 h) was 5.97 ug-eq/g, the “% Dose” value ([3]; Liver, 24 h) was 12.40% and the Conc. ([3]; Liver, 24 h) was 38.30 ug-eq/g. The “% Dose” value ([3]; Lungs, 24 h) was 0.03%, the Conc. ([3]; Lungs, 24 h) was 0.53 ug-eq/g and the “% Dose” value ([3]; Mesenteric Lymph Nodes, 24 h) was 0.00%. For the same compound, the Conc. ([3]; Mesenteric Lymph Nodes, 24 h) was 1.20 ug-eq/g, the “% Dose” value ([3]; PBMC) was 0.00% and the “% Dose” value ([3]; Pancreas, 24 h) was 0.00%. The Conc. ([3]; Pancreas, 24 h) was 0.57 ug-eq/g, the “% Dose” value ([3]; Pituitary Gland, 24 h) was 0.00% and the Conc. ([3]; Pituitary Gland, 24 h) was 0.23 ug-eq/g. The Conc. ([3]; Plasma at 0.25 h) was 3.68 ug-eq/g, the “% Dose” value ([3]; Plasma at 24 h) was 0.00% and the Conc. ([3]; Plasma at 24 h) was 0.20 ug-eq/g. For the same compound, the “% Dose” value ([3]; Prostate, 24 h) was 0.00%, the Conc. ([3]; Prostate, 24 h) was 0.23 ug-eq/g and the “% Dose” value ([3]; Salivary Gland (L + R), 24 h) was 0.00%. The Conc. ([3]; Salivary Gland (L + R), 24 h) was 0.45 ug-eq/g, the “% Dose” value ([3]; Skeletal Muscle, 24 h) was 0.00% and the Conc. ([3]; Skeletal Muscle, 24 h) was 0.11 ug-eq/g. For the same compound, the “% Dose” value ([3]; Skin, 24 h) was 0.00%, the Conc. ([3]; Skin, 24 h) was 0.13 ug-eq/g and the “% Dose” value ([3]; Spinal Cord, 24 h) was 0.00%. The Conc. ([3]; Spinal Cord, 24 h) was “<LOD”, the “% Dose” value ([3]; Spleen, 24 h) was 0.00% and the Conc. ([3]; Spleen, 24 h) was 0.63 ug-eq/g. For the same compound, the “% Dose” value ([3]; Stomach, 24 h) was 0.11%, the Conc. ([3]; Stomach, 24 h) was 1.92 ug-eq/g and the “% Dose” value ([3]; Testes (L + R), 24 h) was 0.02%. The Conc. ([3]; Testes (L + R), 24 h) was 1.95 ug-eq/g, the “% Dose” value ([3]; Thyroid Gland, 24 h) was 0.00% and the Conc. ([3]; Thyroid Gland, 24 h) was 0.30 ug-eq/g. The “% Dose” value ([3]; Total GI Tract Contents, 24 h) was 5.61%, the “% Dose” value ([3]; Total Recovery, 24 h) was 81.10% and the “% Dose” value ([3]; Urine, collected over 24 hr) was 23.72%. For the same compound, the “% Dose” value ([3]; Whole Blood, 24 h) was 0.00%, the Conc. ([3]; Whole Blood, 24 h) was 0.85 ug-eq/g and the “main species observed in plasma” value ([3]; dog, in vivo, po) was “the parent drug”. For the same compound, the “prodrug concentration in the plasma” value ([3]; dog, in vivo, po) was “below the level of assay detection”, the “Metabolites (% of Total Peak Area): PMPApp” value [4] was 18% and the “Metabolites (% of Total Peak Area): PMPA” value ([4]; PBMC) was 50%. The “Metabolites (% of Total Peak Area): PMPA” value ([4]; Plasma/FP) was 11%, the “Metabolites (% of Total Peak Area): PMPA” value ([4]; RBC/FP) was 93% and the “Human Plasma Stability (HP) product” value ([5]; 37° C., TBS pH 7.5) was “monoPOC PMPA”. For the same compound, the “Stability T 1/2 Human Plasma” value ([5]; human, plasma) was 0.41 min and the “Human Plasma Stability (HP) t1/2” value ([5]; human, plasma, pH 7.5) was 0.41.
